What all share (assay type): cell-based
One assay deals with U937 cell line. Nature of the assay: Cell inhibition assay (SRB cell viability), U937. The conditions noted are these: Homo sapiens, U-937, IC50 range class, 72 h, read-out: Inhibitor Activity vs U937 cell line. On the procedure: (§1) The corresponding cancer cell lines (U937, HCT 116 and HUT) growing in log phase were harvested and seeded at 1000 cells/well (200 ul final volume) into 96-well tissue culture plates. Following 24 h of cell growth cells were treated with compounds (final concentration of 20 uM). Plates were then re-incubated for a further 72 h before a sulphorhodamine B (SRB) cell viability assay was conducted according to Skehan 1990 J Natl Canc Inst 82, 1107-1112.
(§2) Data were expressed as a percentage inhibition of the control, measured in the absence of inhibitor, as follows: — % inhibition=100−((S^i/S^o)×100) where S^i is the signal in the presence of inhibitor and S^o is the signal in the presence of DMSO.
(§3) IC50 values were determined by non-linear regression analysis, after fitting the results of eight data points to the equation for sigmoidal dose response with variable slope (% activity against log concentration of compound), using Graphpad Prism software.

A further assay has as its system HCT 116 cell line. Nature of the assay: Cell inhibition assay (SRB cell viability), HCT 116. The conditions noted are these: Homo sapiens, IC50 range class, 72 h, read-out: Inhibitor Activity vs HCT 116 cell line. As to the method: as §1, §2, §3
For a further assay, the system named is HUT cell line. Nature of the assay: Cell inhibition assay (SRB cell viability), HUT. The conditions noted are these: IC50 range class, 72 h, read-out: Inhibitor Activity vs HUT cell line. On the procedure: as §1, §2, §3

Take `COc1cc2c(Oc3ccc(NC(=O)c4ccccc4)cc3)ccnc2cc1OCC[C@H](NCC(C)C)C(=O)OC1CCCC1` [Example 37, (S)-4-[4-(4-Benzoylamino-phenoxy)-6-methoxy-quinolin-7-yloxy]-2-isobutylamino-butyric acid cyclopentyl ester]: the IC50 with U937 cell line is < 1000 nM; in the assay with HCT 116 cell line, 1000 to 5000 nM; in the assay on HUT cell line it was 1000 to 5000 nM.
As to `COc1cc2c(Oc3ccc(NC(=O)c4ccc(F)cc4)cc3)ccnc2cc1OCC[C@H](N)C(=O)OC1CCCC1` [Example 63, (S)-2-Amino-4-{4-[4-(4-fluoro-benzoylamino)-phenoxy]-6-methoxy-quinolin-7-yloxy}-butyric acid cyclopentyl ester], the IC50 in the assay on U937 cell line, in the assay on HCT 116 cell line and in the assay with HUT cell line was < 1000 nM throughout.
Regarding `COc1cc2c(Oc3ccc(-c4noc(-c5ccccc5)n4)cc3)ccnc2cc1OCC[C@H](N)C(=O)OC1CCCC1` [Example 92, (S)-2-Amino-4-{6-methoxy-4-[4-(5-phenyl-[1,2,4]oxadiazol-3-yl)-phenoxy]-quinolin-7-yloxy}-butyric acid cyclopentyl ester], the IC50 in the assay with U937 cell line, in the assay with HCT 116 cell line and with HUT cell line was > 5000 nM each time.
Regarding `COc1cc2c(Oc3ccc(NCc4ccccc4)cc3)ccnc2cc1OCC[C@H](N)C(=O)OC1CCCC1` [Example 138, (S)-2-Amino-4-[4-(4-benzylamino-phenoxy)-6-methoxy-quinolin-7-yloxy]-butyric acid cyclopentyl ester], the IC50 with U937 cell line is < 1000 nM; in the assay on HCT 116 cell line it was 1000 to 5000 nM; in the assay with HUT cell line it was < 1000 nM.
For `COc1cc2c(Oc3ccc(NC(=O)Nc4ccc(C(F)(F)F)cc4)cc3F)ccnc2cc1OCC[C@@H](N)C(=O)OC1CCCC1` [Example 108, (R)-2-Amino-4-(4-{2-fluoro-4-[3-(4-trifluoromethyl-phenyl)-ureido]-phenoxy}-6-methoxy-quinolin-7-yloxy)-butyric acid cyclopentyl ester], the IC50 in the assay on U937 cell line, with HCT 116 cell line and with HUT cell line was < 1000 nM in each case.
For the compound `COc1cc2c(Oc3ccc(CC(=O)Nc4ccc(C(F)(F)F)cc4)cc3)ccnc2cc1OCC[C@H](N)C(=O)OC1CCCC1` [Example 79, (S)-2-Amino-4-(6-methoxy-4-{4-[(4-trifluoromethyl-phenylcarbamoyl)-methyl]-phenoxy}-quinolin-7-yloxy)-butyric acid cyclopentyl ester], the IC50 with U937 cell line, in the assay on HCT 116 cell line and in the assay on HUT cell line was < 1000 nM in each case.
On to `CCN[C@@H](CCOc1cc2nccc(Oc3ccc(NC(=O)c4ccccc4)cc3)c2cc1OC)C(=O)OC1CCCC1` [Example 38, (S)-4-[4-(4-Benzoylamino-phenoxy)-6-methoxy-quinolin-7-yloxy]-2-ethylamino-butyric acid cyclopentyl ester], for which the IC50 with U937 cell line was < 1000 nM; with HCT 116 cell line, 1000 to 5000 nM; in the assay on HUT cell line, 1000 to 5000 nM.
`COc1cccc(CC(=O)N[C@@H](CCOc2cc3nccc(Oc4ccc(NC(=O)c5ccccc5)cc4)c3cc2OC)C(=O)OC2CCCC2)c1` [Example 45, (S)-4-[4-(4-Benzoylamino-phenoxy)-6-methoxy-quinolin-7-yloxy]-2-[2-(3-methoxy-phenyl)-acetylamino]-butyric acid cyclopentyl ester]: the IC50 with U937 cell line was < 1000 nM; in the assay on HCT 116 cell line, 1000 to 5000 nM; in the assay with HUT cell line it was < 1000 nM.
Turning to `COc1cc2c(Oc3ccc(NC(=O)c4cc(C(F)(F)F)ccc4F)cc3)ccnc2cc1OCC[C@H](N)C(=O)OC1CCCC1` [Example 68, (S)-2-Amino-4-{4-[4-(2-fluoro-5-trifluoromethyl-benzoylamino)-phenoxy]-6-methoxy-quinolin-7-yloxy}-butyric acid cyclopentyl ester], the IC50 with U937 cell line, in the assay with HCT 116 cell line and in the assay with HUT cell line was < 1000 nM each time.
As for `COc1cc2c(Oc3ccc(CC(=O)Nc4ccc(F)cc4)cc3)ccnc2cc1OCC[C@H](N)C(=O)OC1CCCC1` [Example 86, (S)-2-Amino-4-(4-{4-[(4-fluoro-phenylcarbamoyl)-methyl]-phenoxy}-6-methoxy-quinolin-7-yloxy)-butyric acid cyclopentyl ester], the IC50 in the assay with U937 cell line, in the assay with HCT 116 cell line and with HUT cell line was < 1000 nM each time.
On to `COc1cc2c(Oc3ccc(NC(=O)c4ccccc4)cc3)ccnc2cc1OCC[C@H](NCc1ccccc1)C(=O)OC1CCCC1` [Example 40, (S)-4-[4-(4-Benzoylamino-phenoxy)-6-methoxy-quinolin-7-yloxy]-2-benzylamino-butyric acid cyclopentyl ester], for which the IC50 in the assay on U937 cell line is < 1000 nM; with HCT 116 cell line, 1000 to 5000 nM; in the assay on HUT cell line, 1000 to 5000 nM.
As to `COc1cc2c(Oc3ccc(NC(=O)Nc4ccc(C(F)(F)F)cc4)cc3)ccnc2cc1OCC[C@@H](N)C(=O)OC1CCCC1` [Example 104, (R)-2-Amino-4-(6-methoxy-4-{4-[3-(4-trifluoromethyl-phenyl)-ureido]-phenoxy}-quinolin-7-yloxy)-butyric acid cyclopentyl ester], the IC50 in the assay with U937 cell line, in the assay with HCT 116 cell line and with HUT cell line was < 1000 nM each time.
Turning to `COc1cc2c(Oc3ccc4cccnc4c3)ccnc2cc1OCC[C@H](N)C(=O)OC1CCCC1` [Example 14, (S)-2-Amino-4-[6-methoxy-4-(quinolin-7-yloxy)-quinolin-7-yloxy]-butyric acid cyclopentyl ester], the IC50 is < 1000 nM in the assay with U937 cell line, 1000 to 5000 nM in the assay with HCT 116 cell line and 1000 to 5000 nM in the assay on HUT cell line.
With `COc1cc2c(Oc3ccc(NC(=O)c4ccc(OC(F)(F)F)cc4)cc3)ccnc2cc1OCC[C@H](N)C(=O)OC1CCCC1` [Example 70, (S)-2-Amino-4-{6-methoxy-4-[4-(4-trifluoromethoxy-benzoylamino)-phenoxy]-quinolin-7-yloxy}-butyric acid cyclopentyl ester], the IC50 in the assay with U937 cell line, with HCT 116 cell line and with HUT cell line was < 1000 nM each time.
`COc1cc2c(Oc3ccc(NC(=O)Nc4ccc(C(F)(F)F)cc4)cc3F)ccnc2cc1OCCC[C@@H](N)C(=O)OC1CCCC1` [Example 123, (R)-2-Amino-5-(4-{2-fluoro-4-[3-(4-trifluoromethyl-phenyl)-ureido]-phenoxy}-6-methoxy-quinolin-7-yloxy)-pentanoic acid cyclopentyl ester]: the IC50 in the assay with U937 cell line, in the assay with HCT 116 cell line and in the assay with HUT cell line was < 1000 nM in each case.
Regarding `COc1cc2c(Oc3ccc(NC(=O)c4ccccc4)c(F)c3)ccnc2cc1OCC[C@H](N)C(=O)OC1CCCC1` [Example 130, (S)-2-Amino-4-[4-(4-benzoylamino-3-fluoro-phenoxy)-6-methoxy-quinolin-7-yloxy]-butyric acid cyclopentyl ester], the IC50 in the assay on U937 cell line, in the assay with HCT 116 cell line and in the assay with HUT cell line was < 1000 nM each time.
On to `COc1cc2c(Oc3ccc(CC(=O)c4ccccc4)cc3)ccnc2cc1OCC[C@H](N)C(=O)OC1CCCC1` [Example 140, (S)-2-Amino-4-{6-methoxy-4-[4-(2-oxo-2-phenyl-ethyl)-phenoxy]-quinolin-7-yloxy}-butyric acid cyclopentyl ester], for which the IC50 is < 1000 nM in the assay on U937 cell line, 1000 to 5000 nM with HCT 116 cell line and < 1000 nM in the assay on HUT cell line.
As for `COc1cc2c(Oc3ccc(NC(=O)c4ccc(F)cc4F)cc3)ccnc2cc1OCC[C@H](N)C(=O)OC1CCCC1` [Example 65, (S)-2-Amino-4-{4-[4-(2,4-difluoro-benzoylamino)-phenoxy]-6-methoxy-quinolin-7-yloxy}-butyric acid cyclopentyl ester], the IC50 in the assay with U937 cell line, in the assay on HCT 116 cell line and with HUT cell line was < 1000 nM throughout.
Take `COc1cc2c(Oc3ccc(NC(=O)C4=C(C)c5ccccc5C4)cc3)ccnc2cc1OCC[C@H](N)C(=O)OC1CCCC1` [Example 72, (S)-2-Amino-4-(6-methoxy-4-{4-[(3-methyl-1H-indene-2-carbonyl)-amino]-phenoxy}-quinolin-7-yloxy)-butyric acid cyclopentyl ester]: the IC50 with U937 cell line, with HCT 116 cell line and with HUT cell line was < 1000 nM each time.
With `COc1ccc(Oc2ccnc3cc(OCC[C@H](N)C(=O)OC4CCCC4)c(OC)cc23)cc1` [Example 9, (S)-2-Amino-4-[6-methoxy-4-(4-methoxy-phenoxy)-quinolin-7-yloxy]-butyric acid cyclopentyl ester], the IC50 in the assay with U937 cell line was 1000 to 5000 nM; in the assay on HCT 116 cell line, > 5000 nM; in the assay with HUT cell line it was > 5000 nM.
On to `COc1cc2c(Oc3ccc(NC(=O)c4cccs4)cc3)ccnc2cc1OCC[C@H](N)C(=O)OC1CCCC1` [Example 75, (S)-2-Amino-4-(6-methoxy-4-{4-[(thiophene-2-carbonyl)-amino]-phenoxy}-quinolin-7-yloxy)-butyric acid cyclopentyl ester], for which the IC50 with U937 cell line, with HCT 116 cell line and in the assay on HUT cell line was < 1000 nM in each case.
As to `COc1cc2c(Oc3ccc(-c4noc(-c5ccccc5)n4)cc3)ccnc2cc1OCC[C@@H](N)C(=O)OC1CCCC1` [Example 107, (R)-2-Amino-4-{6-methoxy-4-[4-(5-phenyl-[1,2,4]oxadiazol-3-yl)-phenoxy]-quinolin-7-yloxy}-butyric acid cyclopentyl ester], the IC50 with U937 cell line, in the assay with HCT 116 cell line and in the assay with HUT cell line was > 5000 nM each time.

The values are drawn from patent US8148531B2 (Chroma Therapeutics Ltd., priority 2005, dated 2012).
